Source: US9630962B2, “4-amino-6-(2,6-dichlorophenyl)-2-(phenylamino)-pyrido[2,3-d]pyrimidin-7(8H)-one derivatives, synthesis and uses thereof” (INSTITUT QUÍMIC DE SARRIÁ, CETS FUNDACIÓ PRIVADA, priority 2013, dated 2017)
Like-named read-outs stand apart in the source and are kept apart here. Blank lines part the entries; values can stand above or below the compound they belong to.

Tests used:
phospho-Lyn = assay: Western blot of BCR kinase phosphorylation in NHL cell lines; type: cell-based; details: 6 h, UPN-1, JVM-13, DoHH-2, SUDHL-16 cells
Protocol: (§1) Analysis of B-Cell Receptor (BCR) activation signaling molecules by Western Blot and flow cytometry. Total protein extracts in 1% Triton X-100 plus protease and phosphatase inhibitors were made from cells treated with a range of doses of the indicated compound (0.1, 1, 5 and 10 μM). These cells lysates were resolved by standard SDS-PAGE (sodium dodecyl sulfate polyacrylamide gel electrophoresis), transferred to PVDF (polyvinylidene difluoride) membranes and incubated overnight with the indicated primary antibodies (pSyk, pLyn and β-actin) followed by species-matched secondary horseradish peroxidase (HRP)-labelled antibodies. Chemiluminiscence was developed adding ECL (enhanced chemilumiscence) reagent and signal was captured in a LAS4000 device using Image Gauge software (Fujifilm). Intracellular amount of PhosphoY223-Btk was determined by inmunostaining with an anti-phosphoY223-Btk-PE antibody (clone N35-86), using IgG1 K isotype-PE as negative control (BD Biosciences). After the different treatments, cells (5×10^5) were fixed in 4% paraformaldehyde in PBS (15 min, 4° C.), permeabilized with cold methanol (10 min, −20° C.), washed with PBS containing 1% BSA and incubated with the indicated antibodies at room temperature for 15 min. Finally, cells were washed with PBS containing 1% BSA, resuspended in 500 μl PBS and analyzed by flow cytometry in an Attune acoustic focusing cytometer (Life Technologies). The Mean Fluorescence Ratio (MFIR) between the mean fluorescence intensity of Btk-PE signal and isotypic control was then calculated for both untreated and treated conditions. These MFIR were then referred to the untreated control (r).
(§2) To further assess the inhibitory effect of 4-amino-6-(2,6-dichlorophenyl)-8-methyl-2-(4-(4-methylpiperazin-1-yl)phenylamino)pyrido[2,3-d]pyrimidin-7(8H)-one (Example 5) on the activity of BCR kinases, a set of 4 cell lines representative of each entity was exposed for 6 h to increased doses of 4-amino-6-(2,6-dichlorophenyl)-8-methyl-2-(4-(4-methylpiperazin-1-yl)phenylamino)pyrido[2,3-d]pyrimidin-7(8H)-one (Example 5) and cell contents in phospho-Syk and phospho-Lyn were analysed by SDS-PAGE and western blotting with specific antibodies, using β-actin as a loading control. […] For the evaluation of phospho-Btk protein levels, cell lines were treated as above with a 5 μM dose of the compound and stained with an anti-phospho-Btk phycoerythin(PE)-labeled antibody followed by flow cytometry analysis.

phospho-Syk = assay: as above; type: cell-based; details: 6 h, UPN-1, JVM-13, DoHH-2, SUDHL-16 cells
Protocol: as §1, §2

PhosphoY223-Btk = assay: Flow cytometry of intracellular PhosphoY223-Btk; type: cell-based; details: 5 μM, 6 h
Protocol: as §1, with “After the different treatments, cells (5×10^5) were fixed in 4% paraformaldehyde in PBS (15 min, 4° C.), permeabilized with cold methanol (10 min, −20° C.), washed with PBS containing 1% BSA and incubated with the indicated antibodies at room temperature for 15 min.” left out, “These MFIR were then referred to the untreated control (r).” left out
To further assess the inhibitory effect of 4-amino-6-(2,6-dichlorophenyl)-8-methyl-2-(4-(4-methylpiperazin-1-yl)phenylamino)pyrido[2,3-d]pyrimidin-7(8H)-one (Example 5) on the activity of BCR kinases, a set of 4 cell lines representative of each entity was exposed for 6 h to increased doses of 4-amino-6-(2,6-dichlorophenyl)-8-methyl-2-(4-(4-methylpiperazin-1-yl)phenylamino)pyrido[2,3-d]pyrimidin-7(8H)-one (Example 5) and cell contents in phospho-Syk and phospho-Lyn were analysed by SDS-PAGE and western blotting with specific antibodies, using β-actin as a loading control. […]

BTK = target: T1, BTK (Homo sapiens, UniProt Q06187); assay: Radiometric protein kinase assay (33PanQinase Activity Assay), residual activity; type: biochemical; details: 10 μM (1×10^−05 M) test compound, singlicate
T1 construct: purchased ProQinase; host or cells: Sf9 insect cells or E. coli (not specified per kinase)
T1 sequence (Q06187 whole entry): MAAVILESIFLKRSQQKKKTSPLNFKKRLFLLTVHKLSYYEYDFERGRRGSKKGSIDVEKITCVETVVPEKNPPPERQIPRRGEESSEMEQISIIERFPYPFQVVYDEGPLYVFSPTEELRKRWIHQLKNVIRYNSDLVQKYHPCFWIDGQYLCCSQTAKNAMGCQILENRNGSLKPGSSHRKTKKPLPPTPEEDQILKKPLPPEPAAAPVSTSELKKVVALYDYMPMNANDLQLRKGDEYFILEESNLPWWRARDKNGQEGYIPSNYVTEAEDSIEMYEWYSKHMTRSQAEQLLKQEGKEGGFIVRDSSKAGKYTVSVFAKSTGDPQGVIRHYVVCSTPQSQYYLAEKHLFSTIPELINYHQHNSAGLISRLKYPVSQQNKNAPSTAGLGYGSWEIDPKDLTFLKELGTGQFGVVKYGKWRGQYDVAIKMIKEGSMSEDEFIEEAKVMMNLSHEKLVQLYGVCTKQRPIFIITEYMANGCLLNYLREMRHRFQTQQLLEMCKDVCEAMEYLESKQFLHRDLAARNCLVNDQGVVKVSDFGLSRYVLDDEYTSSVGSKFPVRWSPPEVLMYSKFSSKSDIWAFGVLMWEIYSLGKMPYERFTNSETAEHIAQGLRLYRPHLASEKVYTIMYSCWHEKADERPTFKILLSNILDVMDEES
Protocol: (§3) The kinase inhibition profile of compounds of formula (I) was evaluated at Proqinase (http://www.proqinase.conn) by measuring residual activity values at a concentration of 10 μM of the test compound in singlicate in front of the following kinases: BTK, LYN, SYK aa1-635 using the following protocol:
(§4) The compounds were dissolved to 1×10^−03 M stock solutions in 100% DMSO. Subsequently, 100 μl of each stock solution were transferred into wells A3-F12 of a microtiter plate (“master plate”). Wells A1-F2 were filled with 100 μl 100% DMSO as controls. 5×10 μl of the master plate were aliquoted into 5 copy plates, which were stored at −20° Celsius until use. For the testing of each group of up to 8 kinases, one copy plate was used.
(§5) In the process, 90 μl H2O were added to each well of a copy plate. To minimize precipitation, the H2O was added to each well only a few minutes before the transfer of the compound solutions into the assay plates. The plate was shaken thoroughly, resulting in a “compound dilution plate” with a compound concentration of 1×10^−04 M/10% DMSO. This plate was used for the transfer of 5 μl compound solution into the assay plates. The final volume of the assay was 50 μl. All compounds were tested at 1×10^−05 M in singlicate. The final DMSO concentration in the reaction cocktails was 1% in all cases. The compound dilution plates were disposed at the end of each working day.
(§6) A radiometric protein kinase assay (^33PanQinase® Activity Assay) was used for measuring the kinase activity of the corresponding protein kinases. All kinase assays were performed in 96-well FlashPlates™ from Perkin Elmer (Boston, Mass., USA) in a 50 μl reaction volume. The reaction cocktail was pipetted in 4 steps in the following order: • 10 μl of non-radioactive ATP solution (in H2O) • 25 μl of assay buffer/[γ-33P]-ATP mixture • 5 μl of test sample in 10% DMSO • 10 μl of enzyme/substrate mixture
(§7) The protein kinase reaction cocktails were incubated at 30° C. for 60 minutes. The reaction was stopped with 50 μl of 2% (v/v) H3PO4, plates were aspirated and washed two times with 200 μl 0.9% (w/v) NaCl. All assays were performed with a BeckmanCoulter Biomek 2000/SL robotic system. Incorporation of ^33Pi (counting of “cpm”) was determined with a microplate scintillation counter (Microbeta, Wallac).
(§8) All protein kinases provided by ProQinase were expressed in Sf9 insect cells or in E. coli as recombinant GST-fusion proteins or His-tagged proteins. All kinases were produced from human cDNAs and purified by either GSH-affinity chromatography or immobilized metal. Affinity tags were removed from a number of kinases during purification. The purity of the protein kinases was examined by SDS-PAGE/Coomassie staining, the identity was checked by mass spectroscopy.
(§9) For each kinase, the median value of the cpm of six wells of column 1 of each assay plate was defined as “low control” (n=6). This value reflects unspecific binding of radioactivity to the plate in the absence of a protein kinase but in the presence of the substrate. Additionally, for each kinase the median value of the cpm of six wells of column 2 of each assay plate was taken as the “high control”, i.e. full activity in the absence of any inhibitor (n=6). The difference between high and low control of each enzyme was taken as 100% activity.
(§10) As part of the data evaluation the low control of each kinase was subtracted from the high control value as well as from their corresponding “compound values”. The residual activity (in %) for each compound well was calculated by using the following formula: Res. Activity (%)=100×[(signal of compound −low control)/(high control −low control)] Results
(§11) The singlicate residual activity values of the tested compounds at one concentration (1×10^−05 M) in singlicate in the required protein kinase assays are given.

LYN = target: T2, LYN (Homo sapiens, UniProt P07948); assay: as above; type: biochemical; details: 10 μM (1×10^−05 M) test compound, singlicate
T2 construct: purchased ProQinase; host or cells: Sf9 insect cells or E. coli (not specified per kinase)
T2 sequence (P07948 whole entry): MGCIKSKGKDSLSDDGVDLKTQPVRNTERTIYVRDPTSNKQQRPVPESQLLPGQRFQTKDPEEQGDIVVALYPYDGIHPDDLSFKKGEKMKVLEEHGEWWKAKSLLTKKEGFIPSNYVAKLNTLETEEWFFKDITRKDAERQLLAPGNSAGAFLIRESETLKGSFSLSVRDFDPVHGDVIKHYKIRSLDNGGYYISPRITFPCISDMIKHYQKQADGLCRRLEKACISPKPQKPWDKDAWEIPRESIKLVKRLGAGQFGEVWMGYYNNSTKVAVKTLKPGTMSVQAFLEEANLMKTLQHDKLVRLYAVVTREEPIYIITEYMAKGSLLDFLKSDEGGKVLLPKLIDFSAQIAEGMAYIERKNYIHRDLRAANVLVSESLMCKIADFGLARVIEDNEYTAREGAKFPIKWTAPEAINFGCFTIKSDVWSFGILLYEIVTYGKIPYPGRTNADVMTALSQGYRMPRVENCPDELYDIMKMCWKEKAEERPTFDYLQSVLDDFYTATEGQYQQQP
Protocol: as §3, §4, §5, §6, §7, §8, §9, §10, §11

SYK aa1-635 = target: T3, SYK aa1-635 (Homo sapiens, UniProt P43405); assay: as above; type: biochemical; details: 10 μM (1×10^−05 M) test compound, singlicate
T3 construct: BTK, LYN, SYK aa1-635; purchased ProQinase; host or cells: Sf9 insect cells or E. coli (not specified per kinase)
Protocol: as §3, §4, §5, §6, §7, §8, §9, §10, §11

MCL cell lines = assay: MTT proliferation assay, growth inhibition; type: cell-based; details: N9, n = 9 cell lines
Protocol: (§12) Cell culture: cell lines were grown in suitable culture media at 37° C. in a humidified atmosphere containing 5% CO2. The following MCL cell lines were used in the assays: Rec-1, HBL-2, UPN-1, Jeko-1, JVM-2, Maver-1, Mino, Granta-519, and Z-138. The following CLL cell lines were used in the assays: MEC-2, JVM-13, and MEC-1. The following FL cell lines were used in the assays: DoHH-2, WSU-NHL, WSU-FSCCL, and SC-1. The following DLBCL cell lines were used in the assays: OCI-LY8, SUDHL-8, U-2932, and SUDHL-16. The following media were used for the indicated cell lines: RPMI 1640+10% foetal bovine serum (FBS) for Rec-1, HBL-2, UPN-1, JVM-2, MAVER, Z138, Mino, JVM-13, WSU-NHL, WSU-FSCCL, DOHH2, SC-1 and U2932; RPMI 1640+20% FBS for Jeko-1, SUDHL-8 and SUDHL-16; DMEM+10% FBS for Granta-519; IMDM+10% FBS for MEC-1 and MEC-2; IMDM+20% FBS for OCI-LY8.
(§13) Analysis of the growth inhibition is carried out using the MTT (Thiazolyl Blue Tetrazolium Bromide) proliferation assay: cells grown in exponential phase were seeded in 96 well plates at 0.5×10^6 cell/ml and treated with 4-amino-6-(2,6-dichlorophenyl)-8-methyl-2-(4-(4-methylpiperazin-1-yl)phenylamino)pyrido[2,3-d]pyrimidin-7(8H)-one (Example 5) at the doses of 0.5, 1.5, 10, 20, 50 and 100 μM. After 24 h or 48 h, MTT reagent was added to each well, incubated for 2 h and plates were then read in a Synergy-HT Multi-Mode Microplate Reader (Biotek).

[1] = tested on: panel of 20 NHLs cell lines; assay: MTT proliferation assay, growth inhibition; type: cell-based; details: all tested cell lines
Protocol: as §12, §13

DLBCL cell lines = assay: MTT proliferation assay, growth inhibition; type: cell-based; details: n = 4 cell lines
Protocol: as §12, §13

FL cell lines = assay: MTT proliferation assay, growth inhibition; type: cell-based; details: n = 4 cell lines
Protocol: as §12, §13

CLL cell lines = assay: MTT proliferation assay, growth inhibition; type: cell-based; details: n = 3 cell lines
Protocol: as §12, §13

[2] = tested on: relapsed/refractory non-Hodgkin's lymphoma and CLL; details: cited from earlier work
[3] = 24 h, read-out: GI50 range at 24 h
[4] = 24 h, read-out: Mean GI50 at 24 h
[5] = 48 h, read-out: GI50 range at 48 h
[6] = 48 h, read-out: Mean GI50 at 48 h

remaining activity at 10 µM (BTK): 3%
remaining activity at 10 µM (LYN): -1%
remaining activity at 10 µM (SYK aa1-635): 9%
SMILES: CN1CCN(c2ccc(Nc3nc(N)c4cc(-c5c(Cl)cccc5Cl)c(=O)n(C)c4n3)cc2)CC1 [Example 5, 4-amino-6-(2,6-dichlorophenyl)-8-methyl-2-(4-(4-methylpiperazin-1-yl)phenylamino)pyrido[2,3-d]pyrimidin-7(8H)-one]
Lyn phosphorylation inhibition (phospho-Lyn; 1 μM): already detectable
Lyn phosphorylation inhibition (phospho-Lyn; 5 μM): significantly enhanced
Lyn phosphorylation inhibition (phospho-Lyn; 10 μM): almost completely achieved
Syk phosphorylation inhibition (phospho-Syk; 1 μM): already detectable
Syk phosphorylation inhibition (phospho-Syk; 5 μM): significantly enhanced
Syk phosphorylation inhibition (phospho-Syk; 10 μM): almost completely achieved
downregulation of phospho-Btk (decrease of mean fluorescence intensity ratio) (PhosphoY223-Btk; DoHH-2 cells): 60%
downregulation of phospho-Btk (decrease of mean fluorescence intensity ratio) (PhosphoY223-Btk; JVM-13 cells): 60%
downregulation of phospho-Btk (decrease of mean fluorescence intensity ratio) (PhosphoY223-Btk; UPN-1 cells): 30%
GI50 (MCL cell lines; [3]): 1.3 to 5.9 µM
GI50 (MCL cell lines; [4]): 3.6 µM
GI50 (MCL cell lines; [5]): 2.2 to 3.6 µM
GI50 (MCL cell lines; [6]): 3 µM
GI50 ([1]; 24 h, read-out: GI50 mean): 4.3 µM
GI50 ([1]; 24 h, read-out: GI50 range): 1.3 to 6.9 µM
GI50 ([1]; 48 h, read-out: GI50 mean): 3.6 µM
GI50 ([1]; 48 h, read-out: GI50 range): 1.4 to 7.2 µM
GI50 (DLBCL cell lines; [3]): 4.3 to 6.9 µM
GI50 (DLBCL cell lines; [4]): 5.4 µM
GI50 (DLBCL cell lines; [5]): 3.8 to 7.2 µM
GI50 (DLBCL cell lines; [6]): 5 µM
GI50 (FL cell lines; [3]): 2.6 to 4.9 µM
GI50 (FL cell lines; [4]): 3.7 µM
GI50 (FL cell lines; [5]): 1.4 to 4.4 µM
GI50 (FL cell lines; [6]): 2.7 µM
GI50 (CLL cell lines; [3]): 5.3 to 6.8 µM
GI50 (CLL cell lines; [4]): 5.9 µM
GI50 (CLL cell lines; [5]): 4.5 to 5.5 µM
GI50 (CLL cell lines; [6]): 4.9 µM

remaining activity at 10 µM (BTK): 16%
remaining activity at 10 µM (LYN): 0%
remaining activity at 10 µM (SYK aa1-635): 44%
SMILES: Cn1c(=O)c(-c2c(Cl)cccc2Cl)cc2c(N)nc(Nc3ccc(OCCN4CCOCC4)cc3)nc21 [Example 7, 4-amino-6-(2,6-dichlorophenyl)-8-methyl-2-(4-(2-morpholinoethoxy)-phenylamino)-pyrido[2,3-d]pyrimidin-7(8H)-one]

SMILES: COc1cc(Nc2ncc(F)c(Nc3ccc4c(n3)N(COP(=O)(O)O)C(=O)C(C)(C)O4)n2)cc(OC)c1OC [fostamatinib]
response rate ([2]; DLBCL patients): 22%
response rate ([2]; FL patients): 10%
response rate ([2]; MCL patients): 11%
partial response (PR) ([2]; patients with CLL (6 of 11)): 55%
dose-limiting toxicity ([2]; phase 1/2 study): diarrhea, neutropenia, and thrombocytopenia

remaining activity at 10 µM (BTK): 10%
remaining activity at 10 µM (LYN): 0%
remaining activity at 10 µM (SYK aa1-635): 31%
SMILES: Cn1c(=O)c(-c2c(Cl)cccc2Cl)cc2c(N)nc(Nc3ccc(NCCN4CCOCC4)cc3)nc21 [Example 6, 4-amino-6-(2,6-dichlorophenyl)-8-methyl-2-(4-(2-morpholinoethylamino)-phenylamino)-pyrido[2,3-d]pyrimidin-7(8H)-one]
